In EP4775586A1, “DEUTERATED TETRACYCLIC DERIVATIVE AND USE THEREOF” (priority 2023, dated 2025):
In brackets after ≈: the same amount, converted by molar mass. Several values for one entry are separate records, joined by “and”; a condition that tells them apart may be missing. Equal values may be shown once. Read-outs that look alike come from different tables or passages of the source.

Legend:
[1] = tested on: Mycobacterium tuberculosis H37Rv; assay: Minimum inhibitory concentration (MIC90) against Mycobacterium tuberculosis H37Rv, Middlebrook 7H9, 96-well plate, 15 days; type: cell-based
[2] = tested on: Mycobacterium tuberculosis H37Rv; type: in vivo, BALB/c mice; conditions: for reduction of pulmonary bacterial load: mouse, in vivo
[3] = Pharmacokinetics and lung tissue distribution in mice, LC-MS/MS; type: in vivo, Balb/C mice; conditions: 100 mg/kg
Method: In this example, the pharmacokinetic parameters and lung tissue distribution of the deuterated compounds YF027, YF032, YF036, and YF044 and their respective non-deuterated control compounds (A, B, C, and D) were determined.
Balb/C mice, male (1 group at each time point, 5 mice per group, 55 mice per compound in total), 7-8 weeks old, weighing about 20 g, animal source: Beijing Vital River Laboratory Animal Technology Co., Ltd.
The test compound was completely dissolved in an 8% Tween-80 aqueous solution. A 10 mg/mL drug liquid was prepared for intraperitoneal injection and intragastric administration.
Single intragastric administration was performed at a dose of 100 mg/kg. The pharmacokinetic differences between the deuterated compounds YF027, YF032, YF036, and YF044 and their respective non-deuterated controls A, B, C, and D were compared.
The mice were fasted overnight before administration. In the experiment, orbital venous blood and lung tissue were collected from the mice at time points of no administration group (0 min) and 10 min, 20 min, 30 min, 1 h, 2 h, 3 h, 4 h, 6 h, 8 h, and 24 h after intragastric administration, and about 300 µL of blood was collected from the eyeballs each time.
The collected blood sample was placed in an anticoagulation tube, and quickly inverted and mixed well. The tube was temporarily placed on ice after being labeled. The blood samples temporarily stored on ice were subjected to low-temperature centrifugation within 1 h at 4 °C at 3000 rpm for 10 min. The supernatant obtained after centrifugation was plasma. The plasma was transferred to a new centrifuge tube and stored in a refrigerator at -80 °C for subsequent detection.
The lung tissues of the mice were collected, washed with pre-cooled normal saline to remove the residual blood and tissue fluid, dried with absorbent paper, weighed with a balance, and placed into a centrifuge tube. The tubes were marked and stored in a refrigerator at -80 °C.
The concentrations of the compounds of the present disclosure and control compounds in plasma and lung tissue were determined using LC-MS/MS. Table 2. Pharmacokinetic parameters of compound YF027 of the present disclosure and control compound A

[4] = molecular target: T1, CYP2E1 (Mus musculus, UniProt Q05421); type: in vitro ADME
T1 construct: from tissue; host or cells: mouse liver microsomes (component of a kit)
T1 sequence (Q05421 whole entry): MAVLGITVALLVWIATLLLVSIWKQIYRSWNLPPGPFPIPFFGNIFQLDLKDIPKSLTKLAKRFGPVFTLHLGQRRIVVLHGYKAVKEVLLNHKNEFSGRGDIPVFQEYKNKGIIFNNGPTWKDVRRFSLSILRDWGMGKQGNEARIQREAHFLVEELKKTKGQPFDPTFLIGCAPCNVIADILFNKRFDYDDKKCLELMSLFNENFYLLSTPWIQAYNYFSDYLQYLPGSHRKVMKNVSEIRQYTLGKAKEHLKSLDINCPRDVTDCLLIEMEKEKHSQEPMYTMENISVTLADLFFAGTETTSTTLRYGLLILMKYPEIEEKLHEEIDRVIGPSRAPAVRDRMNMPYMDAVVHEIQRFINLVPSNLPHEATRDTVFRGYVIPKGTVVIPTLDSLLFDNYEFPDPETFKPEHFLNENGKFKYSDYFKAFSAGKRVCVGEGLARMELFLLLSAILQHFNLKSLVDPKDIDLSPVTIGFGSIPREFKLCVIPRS
Method: (§1) This example was to detect the CYP450 metabolic enzyme phenotype of the deuterated compound YF027 and its non-deuterated control compound A (using a CYP450 enzyme metabolic phenotype research kit (recombinant enzymatic method/7 enzymes)-mouse liver microsome test).
(§2) • a. The test compound was prepared into a 40 mM stock solution for later use. 2.5 µL of the stock solution was taken and diluted with DMSO to a test compound concentration of 200 µM, and the compound at this concentration was used in subsequent tests. • b. The working solution concentration of the mixed positive substrates, phenacetin and testosterone, was 200 µM.
(§3) 1) The components of the kit were thawed in an ice bath. The mixture was well mixed by vortexing and then placed on ice for later use. 2) In addition to the microsomes, the other components of the incubation systems were mixed according to the ratios and well mixed by pipetting, and the ratios of the incubation systems are shown below; Table 6. Incubation system of positive control group
(§4) The inhibitors were quinidine, naphthoflavone, pilocarpine, sodium diethyldithiocarbamate, ticlopidine, ketoconazole, and sulfaphenazole, which corresponded to the inhibition of CYP450 enzymes CYP2D6, CYP1A2, CYP2A6, CYP2E1, CYP2C19, CYP3A4, and CYP2C9, respectively. Table 9. Incubation system of negative control group
(§5) 3) Except for the negative control group (Table 9), 3.125 µL of liver microsomes was added to each of the above incubation systems to prepare 125 µL of reaction solution. The reaction solutions were well mixed by vortexing, and then placed in a water bath at 37 °C to initiate the reaction. A timer was set. 4) At time points of 0 min and 90 min, 50 µL of reaction solution was taken, and a pre-cooled acetonitrile solution was added to the reaction solution. The mixture was quickly well mixed by vortexing to stop the reaction. 5) Mass spectrometry detection pretreatment of reaction solution
(§6) The reaction solution was cryopreserved in a refrigerator at -80 °C overnight and then centrifuged for mass spectrometry detection.
(§7) The detection values after 90 min of incubation were processed as ratios relative to the 0-min detection values to determine the metabolic rate of the compounds in different experimental groups after 90 min. The metabolic inhibition rate was then calculated using the formula: Inhibition rate (%) = (1 - metabolic rate of sample with inhibitor/metabolic rate of sample without inhibitor) × 100%, as shown in Table 10 below. […] The metabolic inhibition rate reflects the effect on the metabolic elimination of the drug after adding different selective inhibitors. […]

[5] = molecular target: T2, CYP1A2 (Mus musculus, UniProt P00186); type: in vitro ADME
T2 construct: from tissue; host or cells: mouse liver microsomes (component of a kit)
T2 sequence (P00186 1-513): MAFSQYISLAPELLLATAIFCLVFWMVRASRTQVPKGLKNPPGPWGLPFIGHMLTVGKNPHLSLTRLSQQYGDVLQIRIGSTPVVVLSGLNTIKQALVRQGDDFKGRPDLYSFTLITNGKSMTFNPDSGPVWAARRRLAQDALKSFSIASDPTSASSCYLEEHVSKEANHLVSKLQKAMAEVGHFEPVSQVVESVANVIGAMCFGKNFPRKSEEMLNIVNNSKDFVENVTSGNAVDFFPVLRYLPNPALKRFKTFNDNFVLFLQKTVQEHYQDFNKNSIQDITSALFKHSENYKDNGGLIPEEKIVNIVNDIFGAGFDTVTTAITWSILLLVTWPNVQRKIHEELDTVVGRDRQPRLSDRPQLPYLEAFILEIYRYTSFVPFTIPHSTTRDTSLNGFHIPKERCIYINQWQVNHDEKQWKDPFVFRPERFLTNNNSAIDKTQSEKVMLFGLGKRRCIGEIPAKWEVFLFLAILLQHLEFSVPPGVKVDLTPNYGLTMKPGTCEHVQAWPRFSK
Method: as §1, §2, §3, §4, §5, §6, §7

[6] = 28-day repeat-dose toxicity study in mice; type: in vivo, Balb/c mice; conditions: 100 mg/kg intragastric, once daily, 6 days a week, 4 weeks, Balb/c mice
Method: Administration groups of the compound YF027 of the present disclosure and its non-deuterated control compound A were set for a 28-day repeat-dose toxicity study in mice. Each compound was administered to 10 Balb/c mice (5 females and 5 males, purchased from Beijing Vital River Laboratory Animal Technology Co., Ltd.) by intragastric administration. The administration was performed once daily for 6 consecutive days a week for 4 consecutive weeks, and an 8% Tween 80 vehicle control group (10 Balb/c mice, 5 females and 5 males) was set for administration at the same volume using the same method. Table 12. Administration information of repeat-dose toxicity assay
During the administration period, the mice were observed every day. The body weight, appearance signs, behavior and activity, fecal traits, and local reactions at the site of administration were recorded. After the end of the administration, the gross anatomy was performed on the mice in the administration group and the control group. The serum of the mice was collected, and the heart, liver, spleen, kidney, lung, and brain tissues and organs were weighed to calculate organ coefficients. The tissue samples of all groups were subjected to histopathological detection, and the serum samples were analyzed for biochemical parameters of liver and kidney functions. The serum biochemical parameters included: alanine aminotransferase (ALT), aspartate aminotransferase (AST), alkaline phosphatase (ALP), urea (UREA), creatinine (CREA), total protein (TP), and albumin (ALB). Statistical analysis was performed to evaluate potential toxic effects of the compounds.

[7] = tested on: CYP2C19; type: in vitro ADME, mouse
Method: as §1, §2, §3, §4, §5, §6
(§8) The detection values after 90 min of incubation were processed as ratios relative to the 0-min detection values to determine the metabolic rate of the compounds in different experimental groups after 90 min. The metabolic inhibition rate was then calculated using the formula: Inhibition rate (%) = (1 - metabolic rate of sample with inhibitor/metabolic rate of sample without inhibitor) × 100%, as shown in Table 10 below. […] The metabolic inhibition rate reflects the effect on the metabolic elimination of the drug after adding different selective inhibitors. Therefore, when the metabolic inhibition rate of a specific enzyme is ≥ 25%, the contribution of the specific enzyme to the clearance of the drug under study can be inferred to be ≥ 25% based on the results of the in vitro metabolism study.

[8] = tested on: CYP2A6; type: in vitro ADME, mouse
Method: as §1, §2, §3, §4, §5, §6, §8

[9] = tested on: CYP3A4; type: in vitro ADME, mouse
Method: as §1, §2, §3, §4, §5, §6, §8

[10] = tested on: CYP2D6; type: in vitro ADME, mouse
Method: as §1, §2, §3, §4, §5, §6, §8

[11] = tested on: CYP2C9; type: in vitro ADME, mouse
Method: as §1, §2, §3, §4, §5, §6, §8

[12] = tested on: liver microsomes; assay: Liver microsome incubation of positive control group (positive substrates); type: in vitro ADME, mouse
Method: as §1, §2, §3
3) Except for the negative control group (Table 9), 3.125 µL of liver microsomes was added to each of the above incubation systems to prepare 125 µL of reaction solution. The reaction solutions were well mixed by vortexing, and then placed in a water bath at 37 °C to initiate the reaction. A timer was set. […]

[13] = 360 h, Mycobacterium tuberculosis H37Rv, 15 days of incubation, 90% inhibition of growth, visual reading, read-out: MIC90
[14] = Balb/C mice, single intragastric administration, plasma

Molecule | reduction of pulmonary bacterial load [2] | AUC(0-inf) ([3]; mouse, in vivo, po) | AUC(0-t) at 24 h ([3]; mouse, in vivo, po) | Cmax ([3]; mouse, in vivo, po) | Tmax ([3]; mouse, in vivo, po) | half-life ([3]; mouse, in vivo, po) | MIC90 [1, 13] | CL ([3]; mouse, in vivo, po) | further results
CC(C)(C)c1cc(O)c(CN2CCCCC2)c2c1oc1c3ccc(O)cc3oc(=O)c12 [Compound A, reference compound] | 0.91 log | 121 ng·h/mL | 117 ng·h/mL | 120 ng/mL and 948 ng/g | 0.167 h | 4.35 h | – | – | MIC90 ([1]; Mycobacterium tuberculosis, H37RV, 360 h): ≤ 0.0039 µg/mL; pulmonary Mycobacterium tuberculosis clearance rate ([2]; 100 mg/kg intragastrically, 4 weeks, mice): 87.7%; Inhibition rate [4]: -26.5%; Inhibition rate [5]: -11.7%; mortality during the administration period [6]: no mice died; Inhibition rate [7]: -19.3%; Inhibition rate [8]: 4.2%; Inhibition rate [9]: 76.9%; Inhibition rate [10]: -8.7%; Inhibition rate [11]: -2.8%
O=C1OCc2cc(O)ccc2-c2oc3ccc(O)c(CN4CCC(c5cccc(Cl)c5)CC4)c3c21 [Compound B] | – | 10400 ng·h/mL | 10300 ng·h/mL | 3570 ng/mL and 23400 ng/g | 1 h | 1.74 h | 0.125 µg/mL (≈ 0.255 µM) | 161 mL/min/kg | bacteriostatic activity in mice ([2]; 4 weeks intragastrically, Table 11 prints 50 mg/kg, text implies twice the dose of YF032): no bacteriostatic activity
C[C@]12CC[C@H]3[C@@H](CCC4=CC(=O)CC[C@@]43C)[C@@H]1CC[C@@H]2O [testosterone] | – | – | – | – | – | – | – | – | metabolism of positive substrate ([12]; liver microsomes, after 90 min of incubation, 37 °C): almost completely metabolized
8-((4-Butanoylpiperidin-1-yl-2,2,6,6-d4)-methyl-d2)-3,9-dihydroxybenzo[5,6]oxepino[4,3-b]benzofuran-7(5H)-one hydrochloride [YF036] | 1.87 log | – | – | – | – | – | – | – | MIC90 ([1]; Mycobacterium tuberculosis H37Rv, 15 days of incubation, 90% inhibition of growth, visual reading): 0.03125 µg/mL; AUC0-∞ [3, 14]: 5883.88 ng·h/mL; CL [3, 14]: 283.3 mL/min/kg; Cmax [3, 14]: 2084.39 ng/mL; Tmax [3, 14]: 0.33 h; t1/2 [3, 14]: 4.75 h; AUC0-t ([3]; Balb/C mice, single intragastric administration, plasma, 1440 min): 5655.66 ng·h/mL
CCCC(=O)C1CCN(Cc2c(O)ccc3oc4c(c23)C(=O)OCc2cc(O)ccc2-4)CC1 [Compound C] | 1.99 log | 5430 ng·h/mL | 4960 ng·h/mL | 944 ng/mL and 5420 ng/g | 0.5 h | 7.12 h | 0.0625 µg/mL (≈ 0.139 µM) | 307.2 mL/min/kg | –
CCOc1ccc(NC(C)=O)cc1 [phenacetin] | – | – | – | – | – | – | – | – | metabolism of positive substrate [12]: almost completely metabolized
